Measured values published in patent US10752624B2, “Kinase inhibitors” (Origenis GmbH, priority 2012, dated 2020).

Assays:
SYK kinase = target: T1, SYK kinase (Homo sapiens, UniProt P43405); test: SYK Assay (OMNIA Kinase Assay, SOX peptide fluorescence); type: biochemical; conditions: 1 mM ATP, 10 μM Omnia Peptide Substrate Tyr 7, 30° C., readings for 30 minutes; read-out: SYK Activities: IC50
T1 construct: purchased Invitrogen, Carlsbad
How it was run: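 The reaction was run at 30 °C with 1 mM ATP, 0.2 mM DTT and 10 μM Omnia Tyr 7 peptide (final) and started by adding SYK. Chelation-enhanced SOX fluorescence (ex 360/em 485 nm) was read every 30 s for 30 min. Reaction velocity versus inhibitor concentration was fitted sigmoidally for IC50.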

LRRK2 = LRRK2 (Homo sapiens, UniProt Q5S007); test: LRRK2-LRRK2 G2019S-Assay (LanthaScreen Eu Kinase Binding Assay); conditions: 5 nM LRRK2, 10 nM tracer 236, 2 nM EU-Anti-GST antibody, 1 h at RT; read-out: LRRK2 Activities: IC50
LRRK2, sequence (Q5S007 970-2527 limits assumed): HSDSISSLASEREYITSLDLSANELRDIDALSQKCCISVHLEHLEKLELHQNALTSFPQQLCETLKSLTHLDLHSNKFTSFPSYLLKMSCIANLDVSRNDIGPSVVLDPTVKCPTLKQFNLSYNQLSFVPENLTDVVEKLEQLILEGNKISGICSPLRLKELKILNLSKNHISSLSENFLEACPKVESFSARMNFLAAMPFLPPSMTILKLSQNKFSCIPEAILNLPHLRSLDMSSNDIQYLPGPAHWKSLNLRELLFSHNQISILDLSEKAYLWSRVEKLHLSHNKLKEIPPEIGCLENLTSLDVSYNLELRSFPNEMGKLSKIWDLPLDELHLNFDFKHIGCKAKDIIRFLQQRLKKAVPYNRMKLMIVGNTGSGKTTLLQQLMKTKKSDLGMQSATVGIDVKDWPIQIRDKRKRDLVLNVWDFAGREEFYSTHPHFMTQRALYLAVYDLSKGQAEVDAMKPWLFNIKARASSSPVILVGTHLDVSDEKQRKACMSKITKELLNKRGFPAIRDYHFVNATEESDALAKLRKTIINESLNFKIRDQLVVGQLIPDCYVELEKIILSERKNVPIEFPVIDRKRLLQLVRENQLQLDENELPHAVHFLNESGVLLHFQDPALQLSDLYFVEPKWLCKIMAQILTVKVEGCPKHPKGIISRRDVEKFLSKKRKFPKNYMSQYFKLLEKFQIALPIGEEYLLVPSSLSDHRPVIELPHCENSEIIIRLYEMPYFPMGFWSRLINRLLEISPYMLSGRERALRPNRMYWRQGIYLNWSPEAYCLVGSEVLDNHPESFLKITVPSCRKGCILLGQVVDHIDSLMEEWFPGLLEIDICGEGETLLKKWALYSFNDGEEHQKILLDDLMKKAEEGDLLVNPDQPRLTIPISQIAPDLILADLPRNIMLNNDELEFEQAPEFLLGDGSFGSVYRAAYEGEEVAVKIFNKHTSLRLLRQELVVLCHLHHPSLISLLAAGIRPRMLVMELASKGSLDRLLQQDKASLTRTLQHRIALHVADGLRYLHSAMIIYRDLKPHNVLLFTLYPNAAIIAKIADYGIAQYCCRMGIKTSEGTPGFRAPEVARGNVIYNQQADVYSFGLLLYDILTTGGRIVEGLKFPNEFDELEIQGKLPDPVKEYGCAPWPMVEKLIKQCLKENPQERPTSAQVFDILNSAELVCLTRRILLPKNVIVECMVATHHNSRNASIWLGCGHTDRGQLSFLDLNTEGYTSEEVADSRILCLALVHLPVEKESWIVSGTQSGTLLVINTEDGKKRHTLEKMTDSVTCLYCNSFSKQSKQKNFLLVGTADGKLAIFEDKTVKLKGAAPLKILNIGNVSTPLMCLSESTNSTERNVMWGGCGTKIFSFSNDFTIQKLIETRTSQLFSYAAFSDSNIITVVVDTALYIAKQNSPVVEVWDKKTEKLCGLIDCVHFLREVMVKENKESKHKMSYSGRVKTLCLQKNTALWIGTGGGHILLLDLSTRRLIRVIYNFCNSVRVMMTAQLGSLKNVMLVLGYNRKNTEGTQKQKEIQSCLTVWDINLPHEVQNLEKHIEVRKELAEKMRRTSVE
How it was run: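 Compound competition with Alexa Fluor 647 tracer 236 (10 nM) was measured after 1 h at room temperature, using 5 nM LRRK2 (wild type or mutant) bound to 2 nM Eu-anti-GST antibody. IC50 was derived from the acceptor/donor (665/615 nm) ratio using a variable-slope dose-response fit.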

| SMILES | IC50 (SYK kinase) [nM] | IC50 (LRRK2) [nM] |
| --- | --- | --- |
| COCC(C)(C)n1cc(Nc2nc3ccc(S(C)(=O)=O)cc3c3cn[nH]c23)cn1 [Example 208, N-(1-(1-methoxy-2-methylpropan-2-yl)-1H-pyrazol-4-yl)-8-(methylsulfonyl)-3H-pyrazolo[3,4-c]quinolin-4-amine] | 10 to 100 | < 10 |
| CC(C)(C)N1CCC(n2cc(Nc3nc4ccc(S(C)(=O)=O)cc4c4cn[nH]c34)cn2)CC1 [Example 211, N-(1-(1-(tert-butyl)piperidin-4-yl)-1H-pyrazol-4-yl)-8-(methylsulfonyl)-3H-pyrazolo[3,4-c]quinolin-4-amine] | < 10 | < 10 |
| CS(=O)(=O)c1ccc2nc(Nc3cnn(CCF)c3)c3[nH]ncc3c2c1 [Example 221, N-(1-(2-fluoroethyl)-1H-pyrazol-4-yl)-8-(methylsulfonyl)-3H-pyrazolo[3,4-c]quinolin-4-amine] | < 10 | < 10 |
| COc1nn(C(C)C)cc1Nc1nc2cccc(OC)c2c2cn[nH]c12 [Example 224, N-(1-isopropyl-3-methoxy-1H-pyrazol-4-yl)-9-methoxy-3H-pyrazolo[3,4-c]quinolin-4-amine] | 100 to 1000 | < 10 |
| COc1nn(C(C)C)cc1Nc1nc2ccc(S(C)(=O)=O)cc2c2cn[nH]c12 [Example 226, N-(1-isopropyl-3-methoxy-1H-pyrazol-4-yl)-8-(methylsulfonyl)-3H-pyrazolo[3,4-c]quinolin-4-amine] | 100 to 1000 | < 10 |
| COc1c(Nc2nc3ccc(S(C)(=O)=O)cc3c3cn[nH]c23)cnn1C(C)C [Example 227, N-(1-isopropyl-5-methoxy-1H-pyrazol-4-yl)-8-(methylsulfonyl)-3H-pyrazolo[3,4-c]quinolin-4-amine] | 100 to 1000 | < 10 |
| COc1nn(C2CCN(C(C)(C)C)CC2)cc1Nc1nc2ccc(S(C)(=O)=O)cc2c2cn[nH]c12 [Example 228, N-(1-(1-(tert-butyl)piperidin-4-yl)-3-methoxy-1H-pyrazol-4-yl)-8-(methylsulfonyl)-3H-pyrazolo[3,4-c]quinolin-4-amine] | 100 to 1000 | 10 to 100 |
| COc1c(Nc2nc3ccc(S(C)(=O)=O)cc3c3cn[nH]c23)cnn1C1CCN(C(C)(C)C)CC1 [Example 229, N-(1-(1-(tert-butyl)piperidin-4-yl)-5-methoxy-1H-pyrazol-4-yl)-8-(methylsulfonyl)-3H-pyrazolo[3,4-c]quinolin-4-amine] | 100 to 1000 | 10 to 100 |
| COCCCn1cc(Nc2nc3ccc(S(C)(=O)=O)cc3c3cn[nH]c23)c(OC)n1 [Example 231, N-(3-methoxy-1-(3-methoxypropyl)-1H-pyrazol-4-yl)-8-(methylsulfonyl)-3H-pyrazolo[3,4-c]quinolin-4-amine] | 100 to 1000 | 10 to 100 |
| COCCCn1ncc(Nc2nc3ccc(S(C)(=O)=O)cc3c3cn[nH]c23)c1OC [Example 232, N-(5-methoxy-1-(3-methoxypropyl)-1H-pyrazol-4-yl)-8-(methylsulfonyl)-3H-pyrazolo[3,4-c]quinolin-4-amine] | 100 to 1000 | 10 to 100 |
| CC(C)n1ncc(Nc2nc3ccc(S(C)(=O)=O)cc3c3cn[nH]c23)c1Cl [Example 233, N-(5-chloro-1-isopropyl-1H-pyrazol-4-yl)-8-(methylsulfonyl)-3H-pyrazolo[3,4-c]quinolin-4-amine] | 100 to 1000 | < 10 |
| COc1cccc2nc(Nc3cnn(C4CCNCC4)c3)c3[nH]ncc3c12 [Example 236, 9-methoxy-N-(1-(piperidin-4-yl)-1H-pyrazol-4-yl)-3H-pyrazolo[3,4-c]quinolin-4-amine] | 10 to 100 | < 10 |
| CC(C)n1cc(Nc2nc3ccc(S(C)(=O)=O)cc3c3cn[nH]c23)c(C#N)n1 [Example 246, 1-isopropyl-4-((8-(methylsulfonyl)-3H-pyrazolo[3,4-c]quinolin-4-yl)amino)-1H-pyrazole-3-carbonitrile] | 100 to 1000 | 10 to 100 |
| CC(C)n1ncc(Nc2nc3ccc(S(C)(=O)=O)cc3c3cn[nH]c23)c1C#N [Example 247, 1-isopropyl-4-((8-(methylsulfonyl)-3H-pyrazolo[3,4-c]quinolin-4-yl)amino)-1H-pyrazole-5-carbonitrile] | 100 to 1000 | < 10 |
| COCCn1ncc(Nc2nc3ccc(S(C)(=O)=O)cc3c3cn[nH]c23)c1C#N [Example 249, 1-(2-methoxyethyl)-4-((8-(methylsulfonyl)-3H-pyrazolo[3,4-c]quinolin-4-yl)amino)-1H-pyrazole-5-carbonitrile] | 100 to 1000 | 10 to 100 |
| COc1cccc2nc(Nc3cnn(CCF)c3)c3[nH]ncc3c12 [Example 253, N-(1-(2-fluoroethyl)-1H-pyrazol-4-yl)-9-methoxy-3H-pyrazolo[3,4-c]quinolin-4-amine] | 100 to 1000 | < 10 |
| COc1cccc2nc(Nc3cnn(CC(C)(C)O)c3)c3[nH]ncc3c12 [Example 256, 1-(4-((9-methoxy-3H-pyrazolo[3,4-c]quinolin-4-yl)amino)-1H-pyrazol-1-yl)-2-methylpropan-2-ol] | 100 to 1000 | < 10 |
| COc1cccc2nc(Nc3cnn(CC(F)(F)F)c3)c3[nH]ncc3c12 [Example 257, 9-methoxy-N-(1-(2,2,2-trifluoroethyl)-1H-pyrazol-4-yl)-3H-pyrazolo[3,4-c]quinolin-4-amine] | 100 to 1000 | < 10 |
| C=C(C)Cn1cc(Nc2nc3cccc(OC)c3c3cn[nH]c23)cn1 [Example 258, 9-methoxy-N-(1-(2-methylallyl)-1H-pyrazol-4-yl)-3H-pyrazolo[3,4-c]quinolin-4-amine] | 100 to 1000 | < 10 |
| COc1cccc2nc(Nc3cnn(C=C(C)C)c3)c3[nH]ncc3c12 [Example 259, 9-methoxy-N-(1-(2-methylprop-1-en-1-yl)-1H-pyrazol-4-yl)-3H-pyrazolo[3,4-c]quinolin-4-amine] | 100 to 1000 | < 10 |
| CS(=O)(=O)c1ccc2nc(Nc3cnn(CC(F)(F)F)c3)c3[nH]ncc3c2c1 [Example 261, 8-(methylsulfonyl)-N-(1-(2,2,2-trifluoroethyl)-1H-pyrazol-4-yl)-3H-pyrazolo[3,4-c]quinolin-4-amine] | 10 to 100 | < 10 |
| CC(C)(O)Cn1cc(Nc2nc3ccc(S(C)(=O)=O)cc3c3cn[nH]c23)cn1 [Example 262, 2-methyl-1-(4-((8-(methylsulfonyl)-3H-pyrazolo[3,4-c]quinolin-4-yl)amino)-1H-pyrazol-1-yl)propan-2-ol] | 10 to 100 | < 10 |
| CC(C)=Cn1cc(Nc2nc3ccc(S(C)(=O)=O)cc3c3cn[nH]c23)cn1 [Example 263, N-(1-(2-methylprop-1-en-1-yl)-1H-pyrazol-4-yl)-8-(methylsulfonyl)-3H-pyrazolo[3,4-c]quinolin-4-amine] | 10 to 100 | < 10 |
| C=C(C)Cn1cc(Nc2nc3ccc(S(C)(=O)=O)cc3c3cn[nH]c23)cn1 [Example 264, N-(1-(2-methylallyl)-1H-pyrazol-4-yl)-8-(methylsulfonyl)-3H-pyrazolo[3,4-c]quinolin-4-amine] | 10 to 100 | < 10 |
| COc1ccc2nc(Nc3cnn(CC(C)C)c3)c3[nH]ncc3c2c1 [Example 285, N-(1-isobutyl-1H-pyrazol-4-yl)-8-methoxy-3H-pyrazolo[3,4-c]quinolin-4-amine] | 100 to 1000 | 10 to 100 |
